Experimental findings from US9505769B2 (ASCENEURON SA, priority 2013, dated 2016) are described below.

A value given as a limit tells only on which side of the number the result lay.

For the first test, the target named is T1, human muscarinic acetylcholine M1 receptor (Homo sapiens, UniProt P11229).
T1 construct: expressed in transfected cells; host or cells: CHO-K1
T1 sequence (P11229 1-460): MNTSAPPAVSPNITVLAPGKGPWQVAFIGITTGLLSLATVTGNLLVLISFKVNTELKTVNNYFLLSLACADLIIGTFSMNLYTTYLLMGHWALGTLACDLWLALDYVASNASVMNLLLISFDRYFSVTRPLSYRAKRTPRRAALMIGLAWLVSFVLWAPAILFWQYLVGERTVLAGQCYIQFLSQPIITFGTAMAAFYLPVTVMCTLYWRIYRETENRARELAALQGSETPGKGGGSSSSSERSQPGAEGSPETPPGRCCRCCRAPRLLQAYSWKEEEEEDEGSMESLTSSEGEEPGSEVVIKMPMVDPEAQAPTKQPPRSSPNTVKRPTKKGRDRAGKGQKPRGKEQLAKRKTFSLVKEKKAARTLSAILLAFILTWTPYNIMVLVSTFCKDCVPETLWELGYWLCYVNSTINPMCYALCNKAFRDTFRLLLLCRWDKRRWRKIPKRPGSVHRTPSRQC
Kind of test: M1 PAM Assay (IP-One HTRF, IP1 accumulation in M1-CHO cells). Format: cell-based.
Settings: not given
As to the method:
Then diluted compounds (0.6% DMSO final concentration) are added together with EC20 of acetylcholine and incubated with the cells for 30 min at 37° C., 5% CO2.
CHO-K1 cells stably transfected with human muscarinic acetylcholine M1 receptor are cultured in Ham's F12 medium containing 10% heat inactivated fetal calf serum, 2 mM L-glutamine and Penicillin-Streptomycin grown in a humidified atmosphere at 5% CO2/95% air at 37° C.
A general note: Time-resolved FRET reads energy transfer from a long-lived donor to a nearby acceptor.
Usually EC50 stands for the concentration that produces a half-maximal response. With `Cc1nc2c3c(nn2c(C)c1Cl)CN(C(=O)c1ccc(F)cc1O[C@H]1C[C@H]2CC[C@@H](C1)N2CCF)C3` [Example 36, (3-chloro-2,4-dimethyl-7H-pyrrolo[3′,4′:3,4]pyrazolo[1,5-a]pyrimidin-8(9H)-yl)(4-fluoro-2-{[(3-endo)-8-(2-fluoroethyl)-8-azabicyclo[3.2.1]oct-3-yl]oxy}phenyl)methanone], the EC50 was below 0.2 µM.

Consider `CN1[C@@H]2CC[C@H]1C[C@@H](Oc1cc(F)ccc1C(=O)N1Cc3nn4cc(Cl)cnc4c3C1)C2` [Example 53, (3-chloro-7H-pyrrolo[3′,4′:3,4]pyrazolo[1,5-a]pyrimidin-8(9H)-yl)(4-fluoro-2-{[(3-endo)-8-methyl-8-azabicyclo[3.2.1]oct-3-yl]oxy}phenyl)methanone], for which the EC50 is below 0.2 µM.

In turn, `CCN1[C@@H]2CC[C@H]1C[C@@H](Oc1cc(F)ccc1C(=O)N1Cc3nn4cc(Cl)cnc4c3C1)C2` [Example 63, (3-chloro-7H-pyrrolo[3′,4′:3,4]pyrazolo[1,5-a]pyrimidin-8(9H)-yl)(2-{[(3-endo)-8-ethyl-8-azabicyclo[3.2.1]oct-3-yl]oxy}-4-fluorophenyl)methanone] displayed an EC50 below 0.2 µM.

In the case of `Cc1nc2c3c(nn2c(C)c1Cl)CN(C(=O)c1ccc(F)cc1O[C@H]1C[C@H]2CC[C@@H](C1)N2CCO)C3` [Example 37, (3-chloro-2,4-dimethyl-7H-pyrrolo[3′,4′:3,4]pyrazolo[1,5-a]pyrimidin-8(9H)-yl)(4-fluoro-2-{[(3-endo)-8-(2-hydroxyethyl)-8-azabicyclo[3.2.1]oct-3-yl]oxy}phenyl)methanone], the EC50 is below 0.2 µM.

Still in this test, the particulars now being: CHO-K1 cells stably transfected with human M1 receptor; compounds added with EC20 of acetylcholine (25 nM), 30 min; intracellular IP1 by IP-One HTRF; read-out: M1 PAM EC50.
Consider `Cc1nc2c3c(nn2c(C)c1Cl)CN(C(=O)c1ccc(F)cc1OCCc1cncc(F)c1)C3` [Example 43, (3-chloro-2,4-dimethyl-7H-pyrrolo[3′,4′:3,4]pyrazolo[1,5-a]pyrimidin-8(9H)-yl)(4-fluoro-2-(2-(5-fluoropyridin-3-yl)ethoxy)phenyl)methanone], for which the EC50 was below 0.2 µM.

Regarding `Cc1cncc(CCOc2cc(F)ccc2C(=O)N2Cc3nn4c(C)c(Cl)c(C)nc4c3C2)c1` [Example 67, (3-chloro-2,4-dimethyl-7H-pyrrolo[3′,4′:3,4]pyrazolo[1,5-a]pyrimidin-8(9H)-yl)(4-fluoro-2-(2-(5-methylpyridin-3-yl)ethoxy)phenyl)methanone], the EC50 was 0.2 to 1 µM.

`COc1cncc(CCOc2cc(F)ccc2C(=O)N2Cc3nn4c(C)c(Cl)c(C)nc4c3C2)c1` [Example 72]: the EC50 was in the range of 1 to 3 µM.

For `CCN1CCC(Oc2cc(F)ccc2C(=O)N2Cc3nn4c(C)c(Cl)c(C)nc4c3C2)CC1` [Example 76, (6-Chloro-5,7-dimethyl-1H,3H-2,4,7a,8-tetraaza-cyclopenta[a]inden-2-yl)-[2-(1-ethyl-piperidin-4-yloxy)-4-fluoro-phenyl]-methanone], the EC50 was below 0.2 µM.

Regarding `Cc1nc2c3c(nn2c(C)c1Cl)CN(C(=O)c1ccccc1O[C@H]1CNC[C@H]1F)C3` (racemic) [Example 25, (syn)-(6-Chloro-5,7-dimethyl-1H,3H-2,4,7a,8-tetraaza-cyclopenta[a]inden-2-yl)-[2-(4-fluoro-pyrrolidin-3-yloxy)-phenyl]-methanone], the EC50 was 0.2 to 1 µM.

For `Cc1nc2c3c(nn2c(C)c1Cl)CN(C(=O)c1ccc(F)cc1OC1CCN(C(CO)CO)CC1)C3` [Example 29, (6-Chloro-5,7-dimethyl-1H,3H-2,4,7a8-tetraaza-cyclopenta[a]inden-2-y)-{4-fluoro-2-[1-(2-hydroxy-1-hydroxymethyl-ethyl)-piperidin-4-yloxy]-phenyl}-methanone], the 50% effective concentration (EC50) was below 0.2 µM.

`Cc1nc2c3c(nn2c(C)c1Cl)CN(C(=O)c1ccc(F)cc1OCc1cccnc1)C3` [Example 19, (6-Chloro-5,7-dimethyl-1H,3H-2,4,7a,8-tetraaza-cyclopenta[a]inden-2-yl)-[4-fluoro-2-(pyridin-3-ylmethoxy)-phenyl]-methanone]: the EC50 was in the range of 1 to 3 µM.

As for `Cc1nc2c3c(nn2c(C)c1Cl)CN(C(=O)c1ccc(F)cc1O[C@H]1CCNC[C@@H]1F)C3` (racemic) [Example 1], the EC50 is below 0.2 µM.

In the case of `Cc1nc2c3c(nn2c(C)c1Cl)CN(C(=O)c1ccc(F)cc1OC[C@H]1C[C@@H](F)CN1)C3` [Example 60, (6-Chloro-5,7-dimethyl-1H,3H-2,4,7a,8-tetraaza-cyclopenta[a]inden-2-yl)-[4-fluoro-2-((2R,4R)-4-fluoro-pyrrolidin-2-ylmethoxy)-phenyl]-methanone], the 50% effective concentration (EC50) was below 0.2 µM.

For the molecule `CCc1nc2c3c(nn2c(C)c1Cl)CN(C(=O)c1ccccc1O[C@@H]1CCC[C@H]1O)C3` [Example 9, (anti)-(6-Chloro-5-ethyl-7-methyl-1H,3H-2,4,7a,8-tetraaza-cyclopenta[a]inden-2-yl)-[2-(2-hydroxy-cyclopentyloxy)-phenyl]-methanone or (anti)-(6-Chloro-5-methyl-7-ethyl-1H,3H-2,4,7a,8-tetraaza-cyclopenta[a]inden-2-yl)-[2-(2-hydroxy-cyclopentyloxy)-phenyl]-methanone], the EC50 lay within 1 to 3 µM.

Consider `Cc1nc2c3c(nn2c(C)c1Cl)CN(C(=O)c1ccc(F)cc1OCCn1ccnc1C)C3` [Example 40, (3-chloro-2,4-dimethyl-7H-pyrrolo[3′,4′:3,4]pyrazolo[1,5-a]pyrimidin-8(9H)-yl)(4-fluoro-2-(2-(2-methyl-1H-imidazol-1-yl)ethoxy)phenyl)methanone], for which the EC50 lay within 1 to 3 µM.

On to `Cc1nc2c3c(nn2c(C)c1Cl)CN(C(=O)c1ccc(F)cc1OC1CC(N(C)C)C1)C3` (stereo not shown) [Example 71, (6-Chloro-5,7-dimethyl-1H,3H-2,4,7a,8-tetraaza-cyclopenta[a]inden-2-yl)-[2-(3-dimethylamino-cyclobutoxy)-4-fluoro-phenyl]-methanone], for which the EC50 was 0.2 to 1 µM.
